The text below walks through data of patent US8188085B2, “Antifungal agents” (Merck Sharp & Dohme Corp., priority 2008, dated 2012).

Usually IC50 stands for the concentration that inhibits the measured activity by half.

Sequence of glucan synthase (GS) prepared from Candida albicans MY1055 (O13428 1-1897): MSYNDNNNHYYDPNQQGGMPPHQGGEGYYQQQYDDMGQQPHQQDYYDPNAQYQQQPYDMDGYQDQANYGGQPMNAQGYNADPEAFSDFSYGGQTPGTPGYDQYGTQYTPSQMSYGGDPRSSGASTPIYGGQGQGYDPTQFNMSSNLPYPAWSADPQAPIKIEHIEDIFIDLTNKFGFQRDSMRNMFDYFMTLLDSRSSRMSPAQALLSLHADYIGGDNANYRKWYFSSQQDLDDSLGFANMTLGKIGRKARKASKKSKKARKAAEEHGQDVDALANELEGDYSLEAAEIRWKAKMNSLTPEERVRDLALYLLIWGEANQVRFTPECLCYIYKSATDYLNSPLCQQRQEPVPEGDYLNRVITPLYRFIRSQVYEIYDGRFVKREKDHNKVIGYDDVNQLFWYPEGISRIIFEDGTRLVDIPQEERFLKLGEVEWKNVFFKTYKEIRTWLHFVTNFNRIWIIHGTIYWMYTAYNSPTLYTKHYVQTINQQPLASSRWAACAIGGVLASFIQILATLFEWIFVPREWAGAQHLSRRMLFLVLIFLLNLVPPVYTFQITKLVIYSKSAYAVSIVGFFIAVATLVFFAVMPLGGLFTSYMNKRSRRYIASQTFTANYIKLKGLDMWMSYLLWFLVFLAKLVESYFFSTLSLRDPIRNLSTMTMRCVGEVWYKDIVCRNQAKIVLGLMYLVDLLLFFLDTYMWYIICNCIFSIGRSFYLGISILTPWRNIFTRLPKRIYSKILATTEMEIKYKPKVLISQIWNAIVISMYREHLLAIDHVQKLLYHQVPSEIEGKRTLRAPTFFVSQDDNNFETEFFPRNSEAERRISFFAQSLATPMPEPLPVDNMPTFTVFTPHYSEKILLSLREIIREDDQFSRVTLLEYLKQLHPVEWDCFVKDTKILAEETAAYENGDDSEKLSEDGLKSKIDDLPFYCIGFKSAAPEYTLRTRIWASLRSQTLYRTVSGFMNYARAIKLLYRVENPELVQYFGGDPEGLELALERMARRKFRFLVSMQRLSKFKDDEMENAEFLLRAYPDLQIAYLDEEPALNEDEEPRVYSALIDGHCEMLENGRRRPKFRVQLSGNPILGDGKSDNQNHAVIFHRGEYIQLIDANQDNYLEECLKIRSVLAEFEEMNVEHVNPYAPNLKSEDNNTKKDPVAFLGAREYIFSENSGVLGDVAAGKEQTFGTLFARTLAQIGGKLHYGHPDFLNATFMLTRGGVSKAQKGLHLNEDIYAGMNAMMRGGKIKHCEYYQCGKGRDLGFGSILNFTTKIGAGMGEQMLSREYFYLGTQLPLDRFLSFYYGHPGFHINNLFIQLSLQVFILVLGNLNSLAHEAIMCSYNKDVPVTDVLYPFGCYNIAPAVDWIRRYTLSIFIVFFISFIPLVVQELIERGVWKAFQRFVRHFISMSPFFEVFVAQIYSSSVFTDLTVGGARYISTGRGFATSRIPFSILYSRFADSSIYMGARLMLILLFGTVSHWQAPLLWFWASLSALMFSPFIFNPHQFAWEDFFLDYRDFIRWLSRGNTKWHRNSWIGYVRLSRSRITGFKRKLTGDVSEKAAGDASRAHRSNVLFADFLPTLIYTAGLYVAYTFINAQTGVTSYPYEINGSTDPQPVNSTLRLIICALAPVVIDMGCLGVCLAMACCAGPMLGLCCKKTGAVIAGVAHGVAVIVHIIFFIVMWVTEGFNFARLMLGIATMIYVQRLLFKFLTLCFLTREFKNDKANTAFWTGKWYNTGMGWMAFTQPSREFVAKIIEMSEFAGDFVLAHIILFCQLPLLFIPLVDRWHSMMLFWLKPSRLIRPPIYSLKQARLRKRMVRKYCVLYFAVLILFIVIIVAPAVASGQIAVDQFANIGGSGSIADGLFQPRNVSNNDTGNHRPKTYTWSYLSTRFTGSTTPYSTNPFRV

The first test addresses glucan synthase (GS) prepared from Candida albicans MY1055 (Candida albicans, UniProt O13428). In words: Glucan synthase inhibition (polymerization assay, 96-well). Format: biochemical. Particulars: GS from C. albicans MY1055; 60 min incubation at 22° C. As for the experimental part: The in vitro evaluation of glucan synthase inhibitory activity of compounds was measured in a polymerization assay in 96-well format. Each well contained 100 μL of ^3H-UDPG at 0.5 mM (6000 to 8000 dpm/nmol), 50 mM HEPES pH 7.5 (Sigma), 10% w/v glycerol (Sigma), 1.5 mg/mL bovine serum albumin (Sigma A 9647. Lot 44H0190), 25 mM KF (Fisher), 1 mM EDTA (Gibco ULTRAPURE), 25 μM GTP-γ-S, enzyme sufficient to give 3 to 6 nmoles incorporation during the 60 min incubation at 22° C., and test compound added from wells in 3-fold serial dilutions in 100% DMSO (1 μL/well). The reaction was stopped by the addition of 100 μL of 20% trichloroacetic acid. Plates were chilled for a minimum of 10 min, and precipitated glucan collected by filtration on GF/C plates (Packard UNIFILTER®-96), washed with 5 cycles of water (about 1 mL/well each cycle) using a Packard FILTERMATE HARVESTER. 40 μL/well scintillation fluid (Packard ULTIMA GOLD TM-XR) was added and the sealed plates counted in a WALLAC BETA counter in top-counting mode at an efficiency of approximately 40%.
Stock solutions were stored at 10 mg/mL in DMSO at −20° C. For each new enzyme preparation, the initial titration performed started at 1 mg/mL, which was prepared by making a 10-fold dilution in DMSO (5 μL to 50 μL). 40 μL of this stock was placed in column 12 of a round-bottomed 96-well microtiter plate. 40 μL DMSO was added to columns 1 to 11 in the same row and ten 3-fold serial dilutions performed, by transferring 20 μL from column 12 to column 11 etc., with 4 mixings before each transfer. No test compound was transferred to from column 2 to column 1. Duplicate aliquots of 1 μL of all 12 dilutions were then transferred to the side walls of a 96-well Bioblock 1.1 mL plate (Fisher brand) to create two rows.
Graphs of the primary data were created in PRISM software (the average of two determinations) using PRISM's curve fitting program (sigmoidal dose response non-linear regression). The amount of compound required to inhibit glucan synthase activity by 50% in this assay (IC50−ng/mL) was calculated.
Routine analysis was performed with glucan synthase (GS) prepared from Candida albicans MY1055 by the following procedure: MY1055 was grown in 10 liters YPD medium (10 g yeast extract, 20 g tryptone, 20 g glucose per liter) with vigorous shaking at 30° C., to early stationary phase. Cells were harvested by centrifugation, the pellet was washed and frozen at −70° C. until breakage. Thawed pellets were shaken with an equal volume of breakage buffer (50 mM HEPES pH 7.4, 10% glycerol, 1 mM EDTA, 1 mM PMSF, 1 mM DTT) and 4 times their weight of 0.5 mm acid washed glass beads for 2 hours at 4° C. Extent of breakage was assessed visually at 40× magnification. After low speed centrifugation to remove cell debris, the supernatant was centrifuged at 100,000×g for 60 min. to separate membranes plus ribosomes from cytoplasmic components. Membranes were further washed two additional times with breakage buffer using the same centrifugation conditions and finally suspended in breakage buffer at 25 to 30 mg/mL protein (Biorad) for storage at −70° C. Extraction of GS activity from membranes was performed at a protein concentration of 5 mg/mL in extraction buffer (50 mM NaPO4 pH 7.5, 0.1 M KCl, 0.1M Na citrate, 20% glycerol, 5 μM GTP-γ-S, 1 mM DTT, 1 mM PMSF, 3 μg/mL pepstatin) plus 0.25% W1 by gentle mixing at 4° C. for 60 min, followed by centrifugation at 100,000×g for 60 min. After centrifugation, clear supernatant was removed from a pellet consisting of a hard layer usually with small amounts of gelatinous unextracted membranes above it.
Trapping was initiated immediately by 5-fold dilution in trapping buffer (50 mM HEPES pH 7.5, 10 mM KF, 1 mM EDTA, 2 mg/mL BSA) plus 2.5 mM UDPG and 10 μM GTP-γ-S. After incubation at 25° C. for 60 to 90 minutes, glucan was harvested by low speed centrifugation (3,000×g, 10 min). […]
Consider `CN[C@@](C)(CO[C@H]1[C@H](n2ncnc2I)C[C@@]23COC[C@]1(C)[C@@H]2CC[C@H]1C3=CC[C@@]2(C)[C@H](C(=O)O)[C@@](C)([C@H](C)C(C)C)CC[C@]12C)C(C)C` (racemic) [Example 22, (1S,4aR,6aS,7R,8R,10aR,10bR,12aR,14R,1SR)-15-[[(2R)-2,3-dimethyl-2-(methylamino)butyl]oxy]-8-[(1R)-1,2-dimethylpropyl]-14-(5-iodo-1H-1,2,4-triazol-1-yl)-1,6,6a,7,8,9,10,10a,10b,11,12,12a-dodecahydro-1,6a,8,10a-tetramethyl-4H-1,4a-propano-2H-phenanthro[1,2-c]pyran-7-carboxylic acid], for which the “Candida Albicans GS IC50” value worked out at 5 ng/mL.

The same test, now with this note: GS from C. albicans MY1055; 60 min incubation at 22° C.; read-out: Candida Albicans GS IC50 (converted).
`CC(C)[C@@H](C)[C@@]1(C)CC[C@]2(C)[C@H]3CC[C@@H]4[C@@]5(COC[C@@]4(C)[C@@H](OC[C@](C)(N)C(C)C)[C@H](n4ncnc4-c4ccc6ccccc6c4)C5)C3=CC[C@@]2(C)[C@@H]1C(=O)O` [Example 158, (1S,4aR,6aS,7R,8R,10aR,10bR,12aR,14R,15R)-15-[[(2R)-2-amino-2,3-dimethylbutyl]oxy]-8-[(1R)-1,2-dimethylpropyl]-14-[5-(2-naphthalenyl)-1H-1,2,4-triazol-1-yl]-1,6,6a,7,8,9,10,10a,10b,11,12,12a-dodecahydro-1,6a,8,10a-tetramethyl-4H-1,4a-propano-2H-phenanthro[1,2-c]pyran-7-carboxylic acid]: the half-inhibitory concentration (IC50) was 20.9 nM. In the case of `CC(C)[C@@H](C)[C@@]1(C)CC[C@]2(C)[C@H]3CC[C@@H]4[C@@]5(COC[C@@]4(C)[C@@H](OCC4COCCN4)[C@H](n4ncnc4-c4ccncc4)C5)C3=CC[C@@]2(C)[C@@H]1C(=O)O` (single isomer, unassigned) [Example 303A], the IC50 was 30.7 nM. Still for that read-out and setting: for `CC(C)[C@@H](C)[C@@]1(C)CC[C@]2(C)[C@H]3CC[C@@H]4[C@@]5(COC[C@@]4(C)[C@@H](OC[C@](C)(N)C(C)C)[C@H](n4ncnc4C(=O)N4CCOCC4)C5)C3=CC[C@@]2(C)[C@@H]1C(=O)O` [Example 86, (1S,4aR,6aS,7R,8R,10aR,10bR,12aR,14R,15R)-15-[[(2R)-2-amino-2,3-dimethylbutyl]oxy]-8-[(1R)-1,2-dimethylpropyl]-14-[5-(4-morpholinylcarbonyl)-1H-1,2,4-triazol-1-yl]-1,6,6a,7,8,9,10,10a,10b,11,12,12a-dodecahydro-1,6a,8,10a-tetramethyl-4H-1,4a-propano-2H-phenanthro[1,2-c]pyran-7-carboxylic acid] the value was 70.5 nM.

Regarding `CC(C)[C@@H](C)[C@@]1(C)CC[C@]2(C)[C@H]3CC[C@@H]4[C@@]5(COC[C@@]4(C)[C@@H](OC[C@](C)(N)C(C)(C)C)[C@H](n4ncnc4-c4cccc(C(N)=O)c4)C5)C3=CC[C@@]2(C)[C@@H]1C(=O)O` [Example 228, (1S,4aR,6aS,7R,8R,10aR,10bR,12aR,14R,15R)-14-[5-[3-(aminocarbonyl)phenyl]-1H-1,2,4-triazol-1-yl]-15-[[(2R)-2-amino-2,3,3-trimethylbutyl]oxy]-8-[(1R)-1,2-dimethylpropyl]-1,6,6a,7,8,9,10,10a,10b,11,12,12a-dodecahydro-1,6a,8,10a-tetramethyl-4H-1,4a-propano-2H-phenanthro[1,2-c]pyran-7-carboxylic acid], the IC50 was 7.77 nM. For `CCS(=O)(=O)c1ncnn1[C@@H]1C[C@@]23COC[C@](C)([C@@H]2CC[C@H]2C3=CC[C@@]3(C)[C@H](C(=O)O)[C@@](C)([C@H](C)C(C)C)CC[C@]23C)[C@H]1OC[C@](C)(N)C(C)C` [Example 140, (1S,4aR,6aS,7R,8R,10aR,10bR,12aR,14R,15R)-15-[[(2R)-2-amino-2,3-dimethylbutyl]oxy]-8-[(1R)-1,2-dimethylpropyl]-14-[5-(ethylsulfonyl)-1H-1,2,4-triazol-1-yl]-1,6,6a,7,8,9,10,10a,10b,11,12,12a-dodecahydro-1,6a,8,10a-tetramethyl-4H-1,4a-propano-2H-phenanthro[1,2-c]pyran-7-carboxylic acid], the 50% inhibitory concentration (IC50) is 6.84 nM.

For the compound `CC(C)[C@@H](C)[C@@]1(C)CC[C@]2(C)[C@H]3CC[C@@H]4[C@@]5(COC[C@@]4(C)[C@@H](OC[C@](C)(N)C(C)C)[C@H](n4nccc4[N+](=O)[O-])C5)C3=CC[C@@]2(C)[C@@H]1C(=O)O` (single isomer, unassigned) [Example 293B], the IC50 is 4.39 nM. Turning to `CC(C)[C@@H](C)[C@@]1(C)CC[C@]2(C)[C@H]3CC[C@@H]4[C@@]5(COC[C@@]4(C)[C@@H](OC[C@](C)(N)C(C)C)[C@H](n4ncnc4-c4ccc(O)nc4)C5)C3=CC[C@@]2(C)[C@@H]1C(=O)O` [Example 199, (1S,4aR,6aS,7R,8R,10aR,10bR,12aR,14R,15R)-15-[[(2R)-2-amino-2,3-dimethylbutyl]oxy]-8-[(1R)-1,2-dimethylpropyl]-14-[5-(6-hydroxy-3-pyridinyl)-1H-1,2,4-triazol-1-yl]-1,6,6a,7,8,9,10,10a,10b,11,12,12a-dodecahydro-1,6a,8,10a-tetramethyl-4H-1,4a-propano-2H-phenanthro[1,2-c]pyran-7-carboxylic acid], the concentration for half-maximal inhibition (IC50) was 0.546 nM.

In the case of `COC(=O)N1CCC(c2ncnn2[C@@H]2C[C@@]34COC[C@](C)([C@@H]3CC[C@H]3C4=CC[C@@]4(C)[C@H](C(=O)O)[C@@](C)([C@H](C)C(C)C)CC[C@]34C)[C@H]2OC[C@](C)(N)C(C)(C)C)CC1` [Example 276, (1S,4aR,6aS,7R,8R,10aR,10bR,12aR,14R,1SR)-15-[[(2R)-2-amino-2,3,3-trimethylbutyl]oxy]-8-[(1R)-1,2-dimethylpropyl]-14-[5-[1-(methoxycarbonyl)-4-piperidinyl]-1H-1,2,4-triazol-1-yl]-1,6,6a,7,8,9,10,10a,10b,11,12,12a-dodecahydro-1,6a,8,10a-tetramethyl-4H-1,4a-propano-2H-phenanthro[1,2-c]pyran-7-carboxylic acid], the half-inhibitory concentration (IC50) is 2.52 nM. The same measure, in the same setting: the value for `CNC1(CO[C@H]2[C@H](n3ncnc3Cl)C[C@@]34COC[C@]2(C)[C@@H]3CC[C@H]2C4=CC[C@@]3(C)[C@H](C(=O)O)[C@@](C)([C@H](C)C(C)C)CC[C@]23C)CCOCC1` [Example 14, (1S,4aR,6aS,7R,8R,10aR,10bR,12aR,14R,15R)-14-(5-chloro-1H-1,2,4-triazol-1-yl)-8-[(1R)-1,2-dimethylpropyl]-15-[[tetrahydro-4-(methylamino)-2H-pyran-4-yl]methoxy]-1,6,6a,7,8,9,10,10a,10b,11,12,12a-dodecahydro-1,6a,8,10a-tetramethyl-4H-1,4a-propano-2H-phenanthro[1,2-c]pyran-7-carboxylic acid] was 7.13 nM; that for `CC(C)[C@@H](C)[C@@]1(C)CC[C@]2(C)[C@H]3CC[C@@H]4[C@@]5(COC[C@@]4(C)[C@@H](OC[C@](C)(N)C(C)(C)C)[C@H](n4ncnc4C(N)=O)C5)C3=CC[C@@]2(C)[C@@H]1C(=O)O` [Example 44, (1S,4aR,6aS,7R,8R,10aR,10bR,12aR,14R,15R)-14-[5-(aminocarbonyl)-1H-1,2,4-triazol-1-yl]-15-[[(2R)-2-amino-2,3,3-trimethylbutyl]oxy]-8-[(1R)-1,2-dimethylpropyl]-1,6,6a,7,8,9,10,10a,10b,11,12,12a-dodecahydro-1,6a,8,10a-tetramethyl-4H-1,4a-propano-2H-phenanthro[1,2-c]pyran-7-carboxylic acid] was 4.31 nM.
